These are literature values, as cited in patent EP4602929A1, “ORAL PRODUCT WITH POWDER COATING” (Nicoventures Trading Limited, priority 2024, dated 2025).

Turning to `CC(/C=C/C=C(C)/C=C/C(=O)O)=C\C=C\C=C(C)\C=C\C=C(C)\C=C\C(=O)O` (stereo in doubt) [norbixin, (2E,4E,6E,8E,10E,12E,14E,16E,18E)-4,8,13,17-tetramethylicosa-2,4,6,8,10,12,14,16,18-nonaenedioic acid], the solubility in water result was “water soluble”. With `COC(=O)/C=C/C(C)=C\C=C\C(C)=C\C=C\C=C(C)\C=C\C=C(C)\C=C\C(=O)O` [bixin, (2E,4E,6E,8E,10E,12E,14E,16Z,18E)-20-methoxy-4,8,13,17-tetramethyl-20-oxoicosa-2,4,6,8,10,12,14,16,18-nonaenoic acid], the solubility in water entry is given as “insoluble in water”.
